Measured values taken from patent publication US8778896B2, “Levoisovalerylspiramycin I, II or III, preparations, preparation methods and uses thereof” (Shenyang Tonglian Group Co., Ltd., priority 2010, dated 2014).
Converted amounts (≈) assume the structure as drawn.

Tests used:
[1] = test system: pyogenic streptococcus 102; experiment: Curative effect on mouse with abdominal infection (ED50); format: in vivo; conditions: Streptococcus, 102, 168 h, pyogenic streptococcus 102, challenging dose 7.8 × 10^4 CFU/0.5 ml, deaths in 7 days, Bliss, read-out: ED50
Protocol: (§1) Test method: preparation of infection bacterial liquid: taking out the test bacterial liquid which is kept in a refrigerator at −80[…] to room temperature for about 1 h, then inoculating streptococcus pneumonia, pyogenic streptococcus and enterococcus absorbing 0.1 ml bacterial liquid respectively to 2 ml MH broth (add 10% inactivated horse serum), and inoculating 0.1 ml bacterial liquid of staphylococcus aureus to 2 ml MH broth according to the same method above; putting it in an incubator at 37[…] to be cultivated for 18 h, to obtain original bacterial liquid; diluting the original bacterial liquid with 5% gastric mucin to make animals infected with 100% lethal bacteria, to obtain infection bacterial liquid.
(§2) The clinical route of administration of carrimycin is proposed to be oral administration, thus intragastric administration is adopted in carrimychin test. Levoisovalerylspiramycin I (obtained in Embodiment 1) and of crystalline compound of levoisovalerylspiramycin I (prepared in Embodiment 27) are fed to animals via […].
(§3) After the mice are infected, respectively feed each mouse 0.2 ml via intragastric administration at 0.5 to 6 h, and they have no adverse reaction. Observe the number of deaths in 7 days, and calculate the 50% effective dose (ED50) of each drug for the infected mouse and compare the protective effect of drugs by Bliss program.

[2] = test system: pyogenic streptococcus 119; experiment: as above; format: in vivo; conditions: Streptococcus, 119, 168 h, pyogenic streptococcus 119, challenging dose 4.9 × 10^4 CFU/0.5 ml, deaths in 7 days, Bliss, read-out: ED50
Protocol: as §1, §2, §3

[3] = test system: pyogenic streptococcus 772; experiment: as above; format: in vivo; conditions: Streptococcus, 772, 168 h, pyogenic streptococcus 772, challenging dose 6.9 × 10^3 CFU/0.5 ml, deaths in 7 days, Bliss, read-out: ED50
Protocol: as §1, §2, §3

[4] = test system: streptococcus pneumoniae57; experiment: MIC against the infecting test organism; format: cell-based, streptococcus pneumoniae; conditions: read-out: MIC
[5] = test system: pyogenic streptococcus 772; experiment: MIC against the infecting test organism; format: cell-based; conditions: read-out: MIC
staphylococcus aureus76 = experiment: MIC against the infecting test organism; format: cell-based, staphylococcus aureus; conditions: read-out: MIC
[6] = test system: pyogenic streptococcus (93); experiment: Clinical isolates, agar double dilution method; format: cell-based; conditions: 93 clinical isolates of pyogenic streptococcus; for MIC50: read-out: MIC50; for MIC90: read-out: MIC90
[7] = test system: streptococcus pneumoniae3; experiment: Curative effect on mouse with abdominal infection (ED50); format: in vivo, streptococcus pneumoniae; conditions: Streptococcus, 168 h, streptococcus pneumoniae3, challenging dose 6.4 × 10^4 CFU/0.5 ml, deaths in 7 days, Bliss, read-out: ED50
Protocol: as §1, §2, §3

[8] = test system: streptococcus pneumoniae57; experiment: as above; format: in vivo, streptococcus pneumoniae; conditions: Streptococcus, 168 h, streptococcus pneumoniae57, challenging dose 8.8 × 10^4 CFU/0.5 ml, deaths in 7 days, Bliss, read-out: ED50
Protocol: as §1, §2, §3

[9] = test system: streptococcus pneumoniae18; experiment: as above; format: in vivo, streptococcus pneumoniae; conditions: Streptococcus, 168 h, streptococcus pneumoniae18, challenging dose 9.6 × 10^4 CFU/0.5 ml, deaths in 7 days, Bliss, read-out: ED50
Protocol: as §1, §2, §3

[10] = test system: streptococcus pneumoniae (112); experiment: Clinical isolates, agar double dilution method; format: cell-based; conditions: 112 clinical isolates of streptococcus pneumoniae; for MIC50: read-out: MIC50; for MIC90: read-out: MIC90
[11] = test system: staphylococcus aureus (155); experiment: Clinical isolates, agar double dilution method; format: cell-based; conditions: 155 clinical isolates of staphylococcus aureus; for MIC50: read-out: MIC50; for MIC90: read-out: MIC90
[12] = test system: pyogenic streptococcus 102; experiment: MIC against the infecting test organism; format: cell-based; conditions: read-out: MIC
[13] = Acute toxicity on mice via oral administration; conditions: 4000 mg/kg
Protocol: Both mice and rats take drugs orally (levoisovalerylspiramycin I, II and III prepared in Embodiment 1)
After observing the mice and rats for two days before test, and those without abnormal conditions is carried out test. Don't give anything to eat to mice and rats overnight before test. […] In this test, feed drugs to mice and rats respectively as per 4000 mg/kg, wherein, mice follow 100 mg/ml, with intragastric administration capacity of 0.6-0.8 ml per one, while rats 173 mg/ml, with intragastric administration capacity of 0.8˜1.0 ml/50 g. Observe those taking drugs for one week for toxic reaction and death.

[14] = test system: streptococcus pneumoniae3; experiment: MIC against the infecting test organism; format: cell-based, streptococcus pneumoniae; conditions: read-out: MIC
[15] = test system: Chlamydia Trachomatis B/TW-5/OT; experiment: Chlamydia in vitro MIC, McCoy cells, immunofluorescence; format: cell-based; conditions: 48 hours, read-out: MIC
[16] = test system: streptococcus pneumoniae18; experiment: MIC against the infecting test organism; format: cell-based, streptococcus pneumoniae; conditions: read-out: MIC
[17] = test system: Chlamydia Trachomatis D/UW-3/Cx; experiment: Chlamydia in vitro MIC, McCoy cells, immunofluorescence; format: cell-based; conditions: 48 hours, read-out: MIC
S. epidermidis (115) = experiment: Clinical isolates, agar double dilution method; format: cell-based; conditions: Staphylococcus epidermidis, 115 clinical isolates of S. epidermidis; for MIC50: read-out: MIC50; for MIC90: read-out: MIC90
staphylococcus aureus21 = experiment: MIC against the infecting test organism; format: cell-based, staphylococcus aureus; conditions: read-out: MIC
[18] = test system: adult acute respiratory infections caused by sensitive bacteria; experiment: Clinical test versus Azithromycin, multi-center random double blind; format: in vivo; conditions: patients 18 to 65 years
Protocol: Adopt a multi-center, random, two blind, double simulation control test, which is carried out in 5 hospitals concurrently according to the unified clinical testing program.
1. Patients from 18 to 65 years old (men and women);
2. Sensitive acute respiratory infections caused by sensitive bacteria include acute bacterial pharyngitis, acute suppurative tonsillitis, acute tracheobronchitis, mild pneumonia and acute nasosinusitis etc;
3. Any subject shall sign an informed consent before being selected.
4. All subjects shall be contracepted in the research period and within at least 3 months upon being dosed.
1. Those with hepatic or renal insufficiency (Blood Cr>1.5 mg/dl and ALT>normal upper limit)
2. The women in pregnancy or lactation
3. Those with gastrointestinal tract diseases, who cannot take drugs orally.
4. Those who take antibacterial within one week before the selection.
According to statistics on the test results by statistics experts, the clinical efficacy (FAS) is: […]

[19] = test system: pyogenic streptococcus 119; experiment: MIC against the infecting test organism; format: cell-based; conditions: read-out: MIC
enterococcus32 = experiment: MIC against the infecting test organism; format: cell-based, enterococcus; conditions: Enterococcus, read-out: MIC

SMILES | ED50 [1] | ED50 [2] | ED50 [3] | MIC [4] | MIC [5] | MIC (staphylococcus aureus76) | MIC50 [6] | MIC90 [6] | ED50 [7] | ED50 [8] | ED50 [9] | MIC50 [10] | MIC90 [10] | MIC50 [11] | MIC90 [11] | MIC [12] | LD50 at 1 week ([13]; mouse, in vivo, po) | MIC [14] | MIC [15] | MIC [16] | further results
COC1C(OC(C)=O)CC(=O)OC(C)C/C=C/C=C/C(OC2CCC(N(C)C)C(C)O2)C(C)CC(CC=O)C1OC1OC(C)C(OC2CC(C)(O)C(OC(=O)CC(C)C)C(C)O2)C(N(C)C)C1O (centres unmarked) [Levoisovalerylspiramycin II, levoisovalerylspiramycin II] | 63.2 mg/kg | 52.8 mg/kg | 24.6 mg/kg | 0.06 µg/mL (≈ 0.0619 µM) | 0.06 µg/mL (≈ 0.0619 µM) | 0.25 µg/mL (≈ 0.258 µM) | 0.25 µg/mL (≈ 0.258 µM) | 32 µg/mL (≈ 33 µM) | 8.99 mg/kg | 13.1 mg/kg | 8.98 mg/kg | 0.12 µg/mL (≈ 0.124 µM) | 2 µg/mL (≈ 2.06 µM) | 1 µg/mL (≈ 1.03 µM) | 32 µg/mL (≈ 33 µM) | 0.12 µg/mL (≈ 0.124 µM) | > 4000 mg/kg | 0.12 µg/mL (≈ 0.124 µM) | 0.25 µg/mL (≈ 0.258 µM) | 0.03 µg/mL (≈ 0.031 µM) | Mortality rate (%) ([13]; mouse, in vivo, po, 1 week): 35%; mortality ([13]; mouse, in vivo, po, 1 week): 7; MIC [17]: 0.25 µg/mL (≈ 0.258 µM); MIC50 (S. epidermidis (115)): 1 µg/mL (≈ 1.03 µM); MIC90 (S. epidermidis (115)): 64 µg/mL (≈ 66 µM); MIC (staphylococcus aureus21): 0.5 µg/mL (≈ 0.516 µM); adverse reaction [18]: 2.5%; clearance of pathogens [18]: 97.56%; clinical efficacy (FAS) [18]: 92.30%; MIC [19]: 0.12 µg/mL (≈ 0.124 µM); MIC (enterococcus32): 0.25 µg/mL (≈ 0.258 µM)
COC1C(O)CC(=O)OC(C)C/C=C/C=C/C(OC2CCC(N(C)C)C(C)O2)C(C)CC(CC=O)C1OC1OC(C)C(OC2CC(C)(O)C(OC(=O)CC(C)C)C(C)O2)C(N(C)C)C1O (centres unmarked) [Levoisovalerylspiramycin I, levoisovalerylspiramycin I] | 66.4 mg/kg | 57.2 mg/kg | 26.1 mg/kg | 0.06 µg/mL (≈ 0.0647 µM) | 0.06 µg/mL (≈ 0.0647 µM) | 0.5 µg/mL (≈ 0.539 µM) | 0.25 µg/mL (≈ 0.27 µM) | 32 µg/mL (≈ 34.5 µM) | 9.73 mg/kg | 13.9 mg/kg | 9.51 mg/kg | 0.12 µg/mL (≈ 0.129 µM) | 2 µg/mL (≈ 2.16 µM) | 1 µg/mL (≈ 1.08 µM) | 64 µg/mL (≈ 69 µM) | 0.12 µg/mL (≈ 0.129 µM) | > 4000 mg/kg | 0.12 µg/mL (≈ 0.129 µM) | 0.25 µg/mL (≈ 0.27 µM) | 0.03 µg/mL (≈ 0.0324 µM) | Mortality rate (%) ([13]; mice, oral): 35%; mortality ([13]; mice, oral, deaths of 20 animals, observed one week): 7; MIC [17]: 0.25 µg/mL (≈ 0.27 µM); MIC50 (S. epidermidis (115)): 1 µg/mL (≈ 1.08 µM); MIC90 (S. epidermidis (115)): 32 µg/mL (≈ 34.5 µM); MIC (staphylococcus aureus21): 0.5 µg/mL (≈ 0.539 µM); adverse reaction [18]: 2.5%; clearance of pathogens [18]: 97.56%; clinical efficacy (FAS) [18]: 92.30%; MIC [19]: 0.12 µg/mL (≈ 0.129 µM); MIC (enterococcus32): 0.5 µg/mL (≈ 0.539 µM)
